The assay deals with L1210 leukemia ip in BDF1 mice, survival T/C. In words: NCI In Vivo Anticancer Drug Screen. Data for tumor model L1210 Leukemia (intraperitoneal) in B6D2F1 (BDF1) mice. Particulars: higher = longer survival. Put shortly: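 Read-out is survival time, reported as the treated-group measurement over the vehicle-control measurement.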
[1] abbreviates: endpoint: mean survival time, dose: 100.0 mg/kg/injection, schedule: Q01DX001 (ip), vehicle: saline.
[2] abbreviates: endpoint: mean survival time, dose: 200.0 mg/kg/injection, schedule: Q01DX001 (ip), vehicle: saline.
The mark [3] stands for this setting: endpoint: mean survival time, dose: 400.0 mg/kg/injection, schedule: Q01DX001 (ip), vehicle: saline.
Setting [4] is: endpoint: mean survival time, dose: 100.0 mg/kg/injection, schedule: Q01DX009 (ip), vehicle: saline.
Where [5] appears, read: endpoint: mean survival time, dose: 100.0 mg/kg/injection, schedule: Q04DX003 (ip), vehicle: Klucel (hydroxypropylcellulose) (HPC).
The mark [6] stands for this setting: endpoint: mean survival time, dose: 100.0 mg/kg/injection, schedule: Q01DX009 (ip), vehicle: saline with Tween-80.
[7] abbreviates: endpoint: mean survival time, dose: 200.0 mg/kg/injection, schedule: Q01DX009 (ip), vehicle: saline with Tween-80.
[8] abbreviates: endpoint: mean survival time, dose: 400.0 mg/kg/injection, schedule: Q01DX009 (ip), vehicle: saline with Tween-80.
Where [9] appears, read: endpoint: mean survival time, dose: 100.0 mg/kg/injection, schedule: Q04DX003 (ip), vehicle: saline with Tween-80.
Where [10] appears, read: endpoint: mean survival time, dose: 200.0 mg/kg/injection, schedule: Q04DX003 (ip), vehicle: Klucel (hydroxypropylcellulose) (HPC).
The mark [11] stands for this setting: endpoint: mean survival time, dose: 400.0 mg/kg/injection, schedule: Q04DX003 (ip), vehicle: Klucel (hydroxypropylcellulose) (HPC).
Where [12] appears, read: endpoint: mean survival time, dose: 200.0 mg/kg/injection, schedule: Q01DX009 (ip), vehicle: saline.
The mark [13] stands for this setting: endpoint: mean survival time, dose: 400.0 mg/kg/injection, schedule: Q01DX009 (ip), vehicle: saline.
Where [14] appears, read: endpoint: mean survival time, dose: 100.0 mg/kg/injection, schedule: Q04DX003 (ip), vehicle: saline.
[15] abbreviates: endpoint: mean survival time, dose: 200.0 mg/kg/injection, schedule: Q04DX003 (ip), vehicle: saline.
Setting [16] is: endpoint: mean survival time, dose: 400.0 mg/kg/injection, schedule: Q04DX003 (ip), vehicle: saline.

Toxic doses and inconclusive results are not listed.

In the case of `O=C(OCC1OC(Cl)C(OC(=O)c2ccccc2)C1OC(=O)c1ccccc1)c1ccccc1` (stereo unspecified), the T/C was 100 % of control (endpoint: mean survival time, dose: 100.0 mg/kg/injection, schedule: Q01DX001 (sc), vehicle: olive oil, sesame oil, peanut oil); 100 % of control (endpoint: mean survival time, dose: 200.0 mg/kg/injection, schedule: Q01DX001 (sc), vehicle: olive oil, sesame oil, peanut oil); 96 % of control (endpoint: mean survival time, dose: 400.0 mg/kg/injection, schedule: Q01DX001 (sc), vehicle: olive oil, sesame oil, peanut oil).

As to `O=C(c1cccnc1)c1cc(-c2ccccn2)c(=O)n2ccccc12`, the T/C (endpoint: median survival time, dose: 25.0 mg/kg/injection, schedule: Q01DX009 (ip), vehicle: saline with Tween-80) is 100 % of control; the T/C (endpoint: median survival time, dose: 50.0 mg/kg/injection, schedule: Q01DX009 (ip), vehicle: saline with Tween-80) was 108 % of control; the T/C (endpoint: median survival time, dose: 100.0 mg/kg/injection, schedule: Q01DX009 (ip), vehicle: saline with Tween-80) is 91 % of control; the T/C (endpoint: median survival time, dose: 200.0 mg/kg/injection, schedule: Q01DX009 (ip), vehicle: saline with Tween-80) is 95 % of control; the T/C (endpoint: median survival time, dose: 400.0 mg/kg/injection, schedule: Q01DX009 (ip), vehicle: saline with Tween-80) is 91 % of control.

With `CNC(=O)C(c1ccccc1)C(O)(c1ccccc1)c1ccccc1` (stereo unspecified), the T/C is 96 % of control (endpoint: mean survival time, dose: 50.0 mg/kg/injection, schedule: Q01DX001 (ip), vehicle: saline); 93 % of control under setting [1]; 98 % of control under setting [2]; 87 % of control under setting [3].

Turning to `C=CCC1(CCC)C(=O)NC(=O)NC1=O`, the T/C is 100 % of control (endpoint: mean survival time, dose: 25.0 mg/kg/injection, schedule: Q01DX009 (ip), vehicle: saline); 112 % of control (endpoint: mean survival time, dose: 50.0 mg/kg/injection, schedule: Q01DX009 (ip), vehicle: saline); 100 % of control under setting [4]; 92 % of control under setting [5].

For the compound `COc1ccc(OC)c(NC(=O)NNC(=O)CNC(=O)Nc2cccc([N+](=O)[O-])c2)c1`, the T/C is, setting by setting: under setting [6], 89 % of control; under setting [7], 91 % of control; under setting [8], 91 % of control.

Take `O=C(NC1CCCCC1)NS(=O)(=O)c1ccc2c(c1)CCC2`: the T/C under setting [1] was 100 % of control, the T/C under setting [2] is 102 % of control and the T/C under setting [3] was 96 % of control.

Turning to `O=C(COc1cccc(Cl)c1)Nc1ccccc1`, the T/C is, setting by setting: under setting [6], 94 % of control; under setting [7], 100 % of control; under setting [8], 89 % of control.

As for `CCC(C)P(=O)(N1CC1)N1CC1` (stereo unspecified), the T/C is 100 % of control (endpoint: mean survival time, dose: 2.0 mg/kg/injection, schedule: Q01DX015 (ip), vehicle: carboxymethylcellulose (CMC)); 103 % of control (endpoint: mean survival time, dose: 4.0 mg/kg/injection, schedule: Q01DX015 (ip), vehicle: carboxymethylcellulose (CMC)); 105 % of control (endpoint: mean survival time, dose: 8.0 mg/kg/injection, schedule: Q01DX015 (ip), vehicle: carboxymethylcellulose (CMC)); 121 % of control (endpoint: mean survival time, dose: 16.0 mg/kg/injection, schedule: Q01DX015 (ip), vehicle: carboxymethylcellulose (CMC)); 183 % of control (endpoint: mean survival time, dose: 32.0 mg/kg/injection, schedule: Q01DX015 (ip), vehicle: carboxymethylcellulose (CMC)).

Regarding `Cc1cc([P+](c2ccccc2)(c2ccccc2)c2ccccc2)c(C)cc1[P+](c1ccccc1)(c1ccccc1)c1ccccc1`, the T/C by setting is: (endpoint: mean survival time, dose: 0.37 mg/kg/injection, schedule: Q04DX003 (ip), vehicle: Klucel (hydroxypropylcellulose) (HPC)) 96 % of control; (endpoint: mean survival time, dose: 0.75 mg/kg/injection, schedule: Q04DX003 (ip), vehicle: Klucel (hydroxypropylcellulose) (HPC)) 106 % of control; (endpoint: mean survival time, dose: 1.5 mg/kg/injection, schedule: Q04DX003 (ip), vehicle: Klucel (hydroxypropylcellulose) (HPC)) 93 % of control; (endpoint: mean survival time, dose: 3.0 mg/kg/injection, schedule: Q04DX003 (ip), vehicle: Klucel (hydroxypropylcellulose) (HPC)) 91 % of control.

With `O=C(OCC(O)C1OC(COC(=O)c2ccccc2)C1O)c1ccccc1` (stereo unspecified), the T/C (endpoint: mean survival time, dose: 100.0 mg/kg/injection, schedule: Q01DX001 (ip), vehicle: saline with Tween-80) is 101 % of control; the T/C (endpoint: mean survival time, dose: 200.0 mg/kg/injection, schedule: Q01DX001 (ip), vehicle: saline with Tween-80) is 97 % of control; the T/C (endpoint: mean survival time, dose: 400.0 mg/kg/injection, schedule: Q01DX001 (ip), vehicle: saline with Tween-80) was 97 % of control.

With `Cc1ccc(-c2nc3cc(Cl)ccc3c(=O)o2)cc1`, the T/C reads like this: under setting [9], 105 % of control; (endpoint: mean survival time, dose: 200.0 mg/kg/injection, schedule: Q04DX003 (ip), vehicle: saline with Tween-80) 102 % of control; (endpoint: mean survival time, dose: 400.0 mg/kg/injection, schedule: Q04DX003 (ip), vehicle: saline with Tween-80) 94 % of control.

As for `[O-]/[N+](=N\Nc1ccccc1)c1ccccc1`, the T/C was 107 % of control (endpoint: mean survival time, dose: 7.5 mg/kg/injection, schedule: Q01DX009 (ip), vehicle: saline with Tween-80); 104 % of control (endpoint: mean survival time, dose: 15.0 mg/kg/injection, schedule: Q01DX009 (ip), vehicle: saline with Tween-80); 89 % of control (endpoint: mean survival time, dose: 30.0 mg/kg/injection, schedule: Q01DX009 (ip), vehicle: saline with Tween-80); 96 % of control (endpoint: mean survival time, dose: 60.0 mg/kg/injection, schedule: Q01DX009 (ip), vehicle: saline with Tween-80).

For `COc1ccc2c(c1C)CCC1(COC(C)=O)CC(C)(O)C(O)CC21` (stereo unspecified), the T/C reads like this: (endpoint: mean survival time, dose: 100.0 mg/kg/injection, schedule: Q01DX009 (ip), vehicle: saline sonified) 96 % of control; (endpoint: mean survival time, dose: 200.0 mg/kg/injection, schedule: Q01DX009 (ip), vehicle: saline sonified) 94 % of control; (endpoint: mean survival time, dose: 400.0 mg/kg/injection, schedule: Q01DX009 (ip), vehicle: saline sonified) 93 % of control.

For the compound `Oc1ccc2c(c1)CNCC2`, the T/C reads like this: under setting [1], 96 % of control; under setting [2], 98 % of control; under setting [3], 102 % of control.

For `O=C1CC(c2cccc(S(=O)(=O)F)c2)=NN1c1ccc([N+](=O)[O-])cn1`, the T/C runs as follows: under setting [5], 102 % of control; under setting [10], 105 % of control; under setting [11], 91 % of control.

Turning to `CC(O)C(C)(C)CO` (stereo unspecified), the T/C runs as follows: under setting [4], 94 % of control; under setting [12], 95 % of control; under setting [13], 90 % of control.

Consider `CS(=O)(=O)OC1CCCCCCC1OS(C)(=O)=O` (stereo unspecified), for which the T/C was 103 % of control (endpoint: mean survival time, dose: 50.0 mg/kg/injection, schedule: Q04DX003 (ip), vehicle: Klucel (hydroxypropylcellulose) (HPC)); 98 % of control (endpoint: mean survival time, dose: 100.0 mg/kg/injection, schedule: Q01DX001 (ip), vehicle: Klucel (hydroxypropylcellulose) (HPC)); 104 % of control under setting [5]; 98 % of control (endpoint: mean survival time, dose: 200.0 mg/kg/injection, schedule: Q01DX001 (ip), vehicle: Klucel (hydroxypropylcellulose) (HPC)); 98 % of control under setting [10]; 104 % of control (endpoint: mean survival time, dose: 400.0 mg/kg/injection, schedule: Q01DX001 (ip), vehicle: Klucel (hydroxypropylcellulose) (HPC)). Also, the T/C under setting [11] is 104 % of control.

Take `O=c1oc2c(-c3ccccc3)cccc2c(O)c1-c1ccccc1`: the T/C is 96 % of control (endpoint: mean survival time, dose: 25.0 mg/kg/injection, schedule: Q04DX003 (ip), vehicle: saline with Tween-80); 101 % of control (endpoint: mean survival time, dose: 50.0 mg/kg/injection, schedule: Q04DX003 (ip), vehicle: saline with Tween-80); 93 % of control under setting [9]; 95 % of control under setting [14]; 93 % of control under setting [15]; 93 % of control under setting [16].

`CC1(CO)C2CCC(CC2)C1CO` (stereo unspecified): the T/C is, setting by setting: (endpoint: mean survival time, dose: 100.0 mg/kg/injection, schedule: Q04DX003 (ip), vehicle: acetone) 98 % of control; (endpoint: mean survival time, dose: 200.0 mg/kg/injection, schedule: Q04DX003 (ip), vehicle: acetone) 96 % of control; (endpoint: mean survival time, dose: 400.0 mg/kg/injection, schedule: Q04DX003 (ip), vehicle: acetone) 93 % of control.

Regarding `CC1(C#N)CCC2c3ccccc3CCC2C1=O` (stereo unspecified), the T/C is 95 % of control under setting [4]; 100 % of control under setting [14]; 96 % of control under setting [12]; 98 % of control under setting [15]; 106 % of control under setting [13]; 97 % of control under setting [16].

As for `Cc1ccc(N=Nc2ccc(C)cc2NC(=O)/C=C/c2ccccc2)cc1`, the T/C reads like this: (endpoint: mean survival time, dose: 50.0 mg/kg/injection, schedule: Q01DX009 (ip), vehicle: saline with Tween-80) 96 % of control; under setting [6], 90 % of control; under setting [7], 86 % of control.

The values are drawn from PubChem BioAssay AID248 (DTP/NCI, 2004).
